Values after ≈ are worked out from the molar mass of the structure shown. Like-named read-outs stand apart in the source and are kept apart here.
Experiments:
[1] = Solubility in PBS; format: physicochemical
In short: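 Solubility is derived from HPLC peak areas: the ratio of the PBS supernatant peak to a 50 μM DMSO peptide peak, times 50 uM.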

[2] = CHI Log D procedure; format: physicochemical; details: for CHI Log D: pH 7.4; for chromatographic logD: pH 7.4, CHI Log D
[3] = target: T1, full-length beta-Catenin (Uniprot ID P35222) (Homo sapiens, UniProt P35222); assay: Fluorescence polarization IC50 (beta-catenin / 5FAM-TCF4 10-53 competition); format: binding
T1 construct: 10 nM full-length beta-Catenin (Uniprot ID P35222)
T1 sequence (P35222 1-781): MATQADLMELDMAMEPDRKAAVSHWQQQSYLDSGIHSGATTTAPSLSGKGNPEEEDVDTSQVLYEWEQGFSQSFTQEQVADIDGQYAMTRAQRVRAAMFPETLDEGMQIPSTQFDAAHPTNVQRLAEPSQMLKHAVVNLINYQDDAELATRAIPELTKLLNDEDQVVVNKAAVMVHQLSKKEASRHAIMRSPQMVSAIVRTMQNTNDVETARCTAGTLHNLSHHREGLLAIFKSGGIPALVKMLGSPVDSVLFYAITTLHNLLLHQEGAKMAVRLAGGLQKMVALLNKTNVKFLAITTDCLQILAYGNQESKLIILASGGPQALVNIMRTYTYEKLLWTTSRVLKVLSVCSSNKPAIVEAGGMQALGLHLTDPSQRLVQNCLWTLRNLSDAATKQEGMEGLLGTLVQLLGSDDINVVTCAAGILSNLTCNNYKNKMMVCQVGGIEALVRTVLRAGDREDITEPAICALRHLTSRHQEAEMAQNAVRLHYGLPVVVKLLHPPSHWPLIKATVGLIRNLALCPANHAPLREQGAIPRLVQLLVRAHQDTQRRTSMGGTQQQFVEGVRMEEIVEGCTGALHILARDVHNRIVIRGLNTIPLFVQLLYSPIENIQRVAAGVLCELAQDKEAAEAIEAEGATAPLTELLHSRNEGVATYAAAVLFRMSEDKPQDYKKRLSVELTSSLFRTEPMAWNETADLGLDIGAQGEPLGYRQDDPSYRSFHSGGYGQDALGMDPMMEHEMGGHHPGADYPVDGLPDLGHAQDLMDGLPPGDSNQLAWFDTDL

[4] = fluorescence polarization, read-out: beta-Catenin FP IC50

Structure (SMILES) | Solubility [1] [µM] | CHI Log D [2] | IC50 [3, 4] [nM] | IC50 ([3]; read-out: FP EC50) [nM] | Solubility ([1]; Solubility (uM)) [µM] | chromatographic logD [2]
CC[C@@H](C)[C@@H]1NC(=O)[C@H](CC(=O)O)NC(=O)[C@]2(CC=CCCCC3(CCCC=CCCCCCC[C@@](C)(C(=O)N[C@@H](Cc4ccccc4)C(=O)N[C@@H](Cc4csc5ccccc45)C(=O)N[C@@H](CCC(N)=O)C(N)=O)NC(=O)[C@H](CC(N)=O)NC(=O)[C@H](Cc4ccccc4)NC(=O)[C@H](C)NC(=O)[C@H](C)NC(=O)[C@H](CCC(=O)O)NC(=O)[C@H](CC(=O)O)NC3=O)NC1=O)CCCN2C(C)=O (stereo partly drawn) [I-476, Ac-PL3-Asp-aIle-B5-Asp-Glu-Ala-Ala-Phe-Asn-S8-Phe-BztA-Gln-NH2] | 49 (≈ 91.6 µg/mL) | 2.317 | 48 | 48 |  | 
CC(=O)N1CCC[C@]12CC=CCCCC1(CCCC=CCCCCCC[C@@](C)(C(=O)N[C@@H](Cc3ccccc3)C(=O)N[C@@H](Cc3csc4ccccc34)C(=O)N[C@@H](CCC(N)=O)C(N)=O)NC(=O)[C@H](CCC(N)=O)NC(=O)[C@H](Cc3ccccc3)NC(=O)[C@H](C)NC(=O)[C@H](C)NC(=O)[C@H](CCC(=O)O)NC(=O)[C@H](CC(=O)O)NC1=O)NC(=O)[C@H]([C@@H](C)O)NC(=O)[C@H](CC(=O)O)NC2=O (stereo partly drawn) [I-477, Ac-PL3-Asp-Thr-B5-Asp-Glu-Ala-Ala-Phe-Gln-S8-Phe-BztA-Gln-NH2] |  |  | 119 |  | 49 (≈ 91.7 µg/mL) | 2
CC(=O)N1CCC[C@]12CC=CCCCC1(CCCC=CCCCCCC[C@@](C)(C(=O)N[C@@H](Cc3ccccc3)C(=O)N[C@@H](Cc3csc4ccccc34)C(=O)N[C@@H](CCC(N)=O)C(N)=O)NC(=O)[C@H](CCC(N)=O)NC(=O)[C@H](Cc3cccs3)NC(=O)[C@H](C)NC(=O)[C@H](C)NC(=O)[C@H](CCC(=O)O)NC(=O)[C@H](CC(=O)O)NC1=O)NC(=O)[C@H](C)NC(=O)[C@H](CC(=O)O)NC2=O (stereo partly drawn) [I-487, Ac-PL3-Asp-Ala-B5-Asp-Glu-Ala-Ala-2Thi-Gln-S8-Phe-BztA-Gln-NH2] | 44 (≈ 81.3 µg/mL) | 1.99 | 45 | 45 |  | 
CC[C@H](C)[C@@H]1NC(=O)[C@H](CC(=O)O)NC(=O)[C@]2(CC=CCCCC3(CCCC=CCCCCCC[C@@](C)(C(=O)N[C@@H](Cc4ccccc4)C(=O)N[C@@H](Cc4csc5ccccc45)C(=O)N[C@@H](Cc4c[nH]cn4)C(N)=O)NC(=O)[C@H](CCC(N)=O)NC(=O)[C@H](Cc4cccs4)NC(=O)[C@H](C)NC(=O)[C@H](C)NC(=O)[C@H](CCC(=O)O)NC(=O)[C@H](CC(=O)O)NC3=O)NC1=O)CCCN2C(C)=O (stereo partly drawn) [I-488, Ac-PL3-Asp-Ile-B5-Asp-Glu-Ala-Ala-2Thi-Gln-S8-Phe-BztA-His-NH2] |  |  | 43 |  | 30 (≈ 56.9 µg/mL) | 2.4
CC[C@H](C)[C@@H]1NC(=O)[C@H](CC(=O)O)NC(=O)[C@]2(CC=CCCCC3(CCCC=CCCCCCC[C@@](C)(C(=O)N[C@@H](Cc4ccccc4)C(=O)N[C@@H](Cc4csc5ccccc45)C(=O)N[C@@H](Cc4c[nH]cn4)C(N)=O)NC(=O)[C@H](CCC(N)=O)NC(=O)[C@H](Cc4cccs4)NC(=O)[C@H](C)NC(=O)[C@H](C)NC(=O)[C@H](CC(=O)O)NC(=O)[C@H](CC(=O)O)NC3=O)NC1=O)CCCN2C(C)=O (stereo partly drawn) [I-489, Ac-PL3-Asp-Ile-B5-Asp-Asp-Ala-Ala-2Thi-Gln-S8-Phe-BztA-His-NH2] |  |  | 57 |  | 36 (≈ 67.8 µg/mL) | 2.34
CC(=O)N1CCC[C@]12CC=CCCCC1(CCCC=CCCCCCC[C@@](C)(C(=O)N[C@@H](Cc3ccccc3)C(=O)N[C@@H](Cc3csc4ccccc34)C(=O)N[C@@H](CCO)C(N)=O)NC(=O)[C@H](CCC(N)=O)NC(=O)[C@H](Cc3ccccc3)NC(=O)[C@H](C)NC(=O)[C@H](C)NC(=O)[C@H](CCC(=O)O)NC(=O)[C@H](CC(=O)O)NC1=O)NC(=O)[C@H](C)NC(=O)[C@H](CC(=O)O)NC2=O (stereo partly drawn) [I-491, Ac-PL3-Asp-Ala-B5-Asp-Glu-Ala-Ala-Phe-Gln-S8-Phe-BztA-Hse-NH2] | 39 (≈ 70.7 µg/mL) | 2.023 | 153 | 153 |  | 

Further molecules by falling IC50 [3, 4], results first:

Solubility [1] [µM] | CHI Log D [2] | IC50 [3, 4] [nM] | IC50 ([3]; read-out: FP EC50) [nM] | Solubility ([1]; Solubility (uM)) [µM] | chromatographic logD [2] | Structure (SMILES)
50 (≈ 92.4 µg/mL) | 1.97 | 147 | 147 |  |  | CC(=O)N1CCC[C@]12CC=CCCCC1(CCCC=CCCCCCC[C@@](C)(C(=O)N[C@@H](Cc3ccccc3)C(=O)N[C@@H](Cc3csc4ccccc34)C(=O)N[C@@H](CCC(N)=O)C(N)=O)NC(=O)[C@H](CCC(N)=O)NC(=O)[C@H](Cc3cccs3)NC(=O)[C@H](C)NC(=O)[C@H](C)NC(=O)[C@H](CCC(=O)O)NC(=O)[C@H](CC(=O)O)NC1=O)NC(=O)[C@H](C)NC(=O)[C@H](CC(=O)O)NC2=O (stereo partly drawn) [I-486, Ac-PL3-Asp-Ala-B5-Asp-Glu-Ala-Ala-2Thi-Gln-S8-Phe-BztA-Gln-NH2]
43 (≈ 80.4 µg/mL) | 2.277 | 102 | 102 |  |  | CC[C@@H](C)[C@@H]1NC(=O)[C@H](CC(=O)O)NC(=O)[C@]2(CC=CCCCC3(CCCC=CCCCCCC[C@@](C)(C(=O)N[C@@H](Cc4ccccc4)C(=O)N[C@@H](Cc4csc5ccccc45)C(=O)N[C@@H](CCC(N)=O)C(N)=O)NC(=O)[C@H](CC(N)=O)NC(=O)[C@H](Cc4ccccc4)NC(=O)[C@H](C)NC(=O)[C@H](C)NC(=O)[C@H](CCC(=O)O)NC(=O)[C@H](CC(=O)O)NC3=O)NC1=O)CCCN2C(C)=O (stereo partly drawn) [I-475, Ac-PL3-Asp-aIle-B5-Asp-Glu-Ala-Ala-Phe-Asn-S8-Phe-BztA-Gln-NH2]
50 (≈ 92.5 µg/mL) |  | 88 |  |  | 2.21 | CC(=O)N1CCC[C@]12CC=CCCCC1(CCCC=CCCCCCC[C@@](C)(C(=O)N[C@@H](Cc3ccccc3)C(=O)N[C@@H](Cc3csc4ccccc34)C(=O)N[C@@H](Cc3ccco3)C(N)=O)NC(=O)[C@H](CCC(N)=O)NC(=O)[C@H](Cc3ccccc3)NC(=O)[C@H](C)NC(=O)[C@H](C)NC(=O)[C@H](CCC(=O)O)NC(=O)[C@H](CC(=O)O)NC1=O)NC(=O)[C@H](C)NC(=O)[C@H](CC(=O)O)NC2=O (stereo partly drawn) [I-490, Ac-PL3-Asp-Ala-B5-Asp-Glu-Ala-Ala-Phe-Gln-S8-Phe-BztA-2FurA-NH2]
42 (≈ 77.7 µg/mL) | 2.052 | 71 | 71 |  |  | CC(=O)N1CCC[C@]12CC=CCCCC1(CCCC=CCCCCCC[C@@](C)(C(=O)N[C@@H](Cc3ccccc3)C(=O)N[C@@H](Cc3csc4ccccc34)C(=O)N[C@@H](Cc3cn(C)cn3)C(N)=O)NC(=O)[C@H](CC(N)=O)NC(=O)[C@H](Cc3ccccc3)NC(=O)[C@H](C)NC(=O)[C@H](C)NC(=O)[C@H](CCC(=O)O)NC(=O)[C@H](CC(=O)O)NC1=O)NC(=O)[C@H](C)NC(=O)[C@H](CC(=O)O)NC2=O (stereo partly drawn) [I-478, Ac-PL3-Asp-Ala-B5-Asp-Glu-Ala-Ala-Phe-Asn-S8-Phe-BztA-1MeH-NH2]
49 (≈ 88.9 µg/mL) | 2.052 | 53 | 53 |  |  | CC(=O)N1CCC[C@]12CC=CCCCC1(CCCC=CCCCCCC[C@@](C)(C(=O)N[C@@H](Cc3ccccc3)C(=O)N[C@@H](Cc3csc4ccccc34)C(=O)N[C@@H](CCO)C(N)=O)NC(=O)[C@H](CCC(N)=O)NC(=O)[C@H](Cc3ccccc3)NC(=O)[C@H](C)NC(=O)[C@H](C)NC(=O)[C@H](CCC(=O)O)NC(=O)[C@H](CC(=O)O)NC1=O)NC(=O)[C@H](C)NC(=O)[C@H](CC(=O)O)NC2=O (stereo partly drawn) [I-492, Ac-PL3-Asp-Ala-B5-Asp-Glu-Ala-Ala-Phe-Gln-S8-Phe-BztA-Hse-NH2]
50 (≈ 92.1 µg/mL) | 2.114 | 43 | 43 |  |  | CC[C@@H]1NC(=O)[C@H](CC(=O)O)NC(=O)[C@]2(CC=CCCCC3(CCCC=CCCCCCC[C@@](C)(C(=O)N[C@@H](Cc4ccccc4)C(=O)N[C@@H](Cc4csc5ccccc45)C(=O)N[C@@H](CCC(N)=O)C(N)=O)NC(=O)[C@H](CC(N)=O)NC(=O)[C@H](Cc4ccccc4)NC(=O)[C@H](C)NC(=O)[C@H](C)NC(=O)[C@H](CCC(=O)O)NC(=O)[C@H](CC(=O)O)NC3=O)NC1=O)CCCN2C(C)=O (stereo partly drawn) [I-474, Ac-PL3-Asp-Abu-B5-Asp-Glu-Ala-Ala-Phe-Asn-S8-Phe-BztA-Gln-NH2]
38 (≈ 70.3 µg/mL) | 2.094 | 27 | 27 |  |  | CC(=O)N1CCC[C@]12CC=CCCCC1(CCCC=CCCCCCC[C@@](C)(C(=O)N[C@@H](Cc3ccccc3)C(=O)N[C@@H](Cc3csc4ccccc34)C(=O)N[C@@H](Cc3cn(C)cn3)C(N)=O)NC(=O)[C@H](CC(N)=O)NC(=O)[C@H](Cc3ccccc3)NC(=O)[C@H](C)NC(=O)[C@H](C)NC(=O)[C@H](CCC(=O)O)NC(=O)[C@H](CC(=O)O)NC1=O)NC(=O)[C@H](C)NC(=O)[C@H](CC(=O)O)NC2=O (stereo partly drawn) [I-479, Ac-PL3-Asp-Ala-B5-Asp-Glu-Ala-Ala-Phe-Asn-S8-Phe-BztA-1MeH-NH2]
